Consider seven molecules from patent publication US20220274967A1, “BCAT MODULATION” (Icagen, LLC, priority 2019, published 2022).

The IC50 is the concentration that gives 50% inhibition.

Each structure is given as a SMILES string. Where two headings read alike, the source gives them in different places.

One data set deals with T1, BCAT1 (Homo sapiens, UniProt P54687).
T1 sequence (P54687 1-386): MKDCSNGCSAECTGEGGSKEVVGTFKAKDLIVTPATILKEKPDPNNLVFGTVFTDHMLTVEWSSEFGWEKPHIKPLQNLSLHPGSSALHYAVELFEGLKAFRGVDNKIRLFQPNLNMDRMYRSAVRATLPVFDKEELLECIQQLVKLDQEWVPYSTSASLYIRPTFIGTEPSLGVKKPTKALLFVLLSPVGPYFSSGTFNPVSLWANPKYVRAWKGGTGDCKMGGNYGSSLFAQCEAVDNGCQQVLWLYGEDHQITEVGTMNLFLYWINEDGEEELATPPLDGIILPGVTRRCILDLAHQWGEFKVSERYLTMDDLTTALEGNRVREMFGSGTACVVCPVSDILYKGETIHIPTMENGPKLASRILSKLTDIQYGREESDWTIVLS
Kind of data set: BCAT1 enzyme inhibition (human), Glutamate Glo luminescence. The format is biochemical. Put shortly: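 BCAT1 enzyme (0.06 ug/ml final) was preincubated with compound (3-0.0001 μM, 0.3% DMSO) for 10 or 60 min at room temperature in 50 mM Tris/0.05% TWEEN-20. The reaction then ran 10 min with 300 μM L-leucine and 250 μM alpha-ketoglutaric acid, was acid-quenched, and glutamate was read by luminescence. IC50 came from a 4-parameter fit, normalized to 10 μM VS558CSA inhibition.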

Data set [1] is described as follows: 3-HIB assay in vitro, direct MS assay of conditioned media. The format is cell-based, human. Conditions: GM00371 cells, read-out: 3HIB INHIBITION IC50 (μM) MEAN GM00371 cells Direct MS Assay. On the procedure:
Cell Plating: Cells (Coriell Institute GM00371 cells) were plated (96-well clear bottom sterile plate; Greiner 655098) at 10,000 cells/0.1 mL in Eagle's minimum essential medium (EMEM)/15% FBS (Gibco 16000-044) with a Combi dispenser in a cell culture hood and incubated at 37° C. and 5% CO2 overnight.
Compound Dilution: Compound were prepared as 33.3× intermediate dilution in DMSO in 96 well round polystyrene plates. For 30 μM final maximum start with 30 μL of 10 mM in DMSO. 10-12 1:3 serial dilutions were prepared from left to right (20 μL+40 μL DMSO). A 10× secondary dilution was prepare in EMEM by taking 7.5 μL 33.3× and transfer to replicate 96 well round polystyrene plates and then adding 242.5 μL EMEM A 1× final dilution in EMEM was prepared by taking 50 μL 10× dilution and transferring to replicate 96 well polypropylene assay block (Costar 3956) and adding 450 μL EMEM A control was prepared for maximal compound inhibition by taking 20 μL 10 mM Reference Compound A and adding 40 μL DMSO for a concentration of 3.3 mM To 7.5 μL of the 3.3 mM Reference Compound A solution and added 242.5 μL EMEM to make a 100 μM solution. The subsequent Reference Compound A solution was diluted with EMEM to achieve a final concentration of 10 μM. The structure of Reference Compound A is:
A control was prepared for maximal compound toxicity by taking 7.5 μL Reference Compound B and 242.5 μL EMEM to make […]. 50 μL of that 100 μM Reference Compound B solution was combined with 450 μL EMEM to achieve a concentration of 30 μM. The structure of Reference Compound B is
A DMSO Control was prepared by dilution 7.5 μL with 242.5 μL EMEM and taking 50 μL of the subsequent solution and diluting with 450 μL EMEM.
Compound Treatment: Media was aspirated from the cells and 100 μL of D-PBS (ThermoFisher 14190144) was added and then removed. 100 μL of diluted compound was added to the cells in the place and the cells were incubated at 37° C. and 5% CO2 for 24 hours.
Collection of Conditioned Media: For 3HIB MS detection: 20 μL conditioned media was removed from the cells and was transferred to a labeled replicate 96 well polypropylene assay plate (VWR 62408-946). And the plate was heat sealed and stored at −80° C.
3HIB Derivatization (Generalized SOP): The media collected for 3HIB MS detection was derivatized under the following conditions. Buffer: 0.1M 1-Ethyl-3-(3-dimethylaminopropyl)carbodiimide (EDC) dissolved in 0.1 M 2-(N-morpholino)ethanesulfonic acid ([…]) adjusted to pH 5.6. Buffer prep: weighed 10.6 g MES (Sigma #M-5287) per 500 mL HPLC grade H2O. Stored at 4° C.; 0.1M EDC: Weighed 1.971 g EDC (#E-1769) per 100 mL MES. Adjusted pH to 5.6 with ˜40 drops of 1N NaOH and stored at 4° C. Buffer has a short half-life should be used within two weeks.
Derivatization: To 20 μL sample was added 60 μL 5 uM 3HIB-4C13 internal standard followed by 20 μL EDC in MES and 100 μL MES. The plate was sealed and incubate at 50° C. for […] then centrifuged at 4000 rpm at 6° C. for 10 minutes. LC-MS analysis was then conducted and the data was processed using standard methods.

A further data set concerns GM00371 cells. In words: Viability assay (Cell titer glo) in the 3-HIB assay. The format is cell-based, human. The note with it: 24 hours, read-out: 3HIB INHIBITION IC50 (μM) MEAN GM00371 cells Viablility Assay. Put shortly:
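GM00371 cells (10,000/well, EMEM/15% FBS) were exposed for 24 h at 37 °C to compounds in 1:3 serial dilution from 30 μM top concentration in EMEM. Reference Compound B at 30 μM served as maximal-toxicity control. Viability read as CellTiter-Glo luminescence.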
In general terms: ATP-based viability assays read luminescence as a measure of living cells.

In the next data set the test system is propionyl carnitine. Kind of data set: Propionyl carnitine in conditioned media of propionic acidemia fibroblasts. The format is cell-based, human. Conditions: 24 hours, increasing concentrations, FIG. 1. On the procedure:
could inhibit levels of the downstream metabolite propionyl carnitine, which is found to be elevated in patients with propionic acidemia, by analyzing propionyl carnitine levels in conditioned media in human fibroblasts from a patient with propionic acidemia treated with a dose response of the compound of the disclosure.
(§1) Primary human fibroblasts from a patient with propionic acidemia (Coriell #GM00371) were plated in complete media (EMEM, 15% FBS) in a 96-well plate at 10,000 cells/well and incubated overnight at 37° C. at 5% CO2. Compounds were serially diluted initially in DMSO then into serum-free EMEM media. The cells were then washed with D-PBS before addition of the media containing the diluted compound, and were then incubated at 37° C. at 5% CO2 overnight.
The conditioned media was removed from cells after 24 hours of compound treatment and was diluted 2× with D3-propionyl carnitine internal standard diluted in MS-grade methanol. Plates were sealed and samples were frozen at −80DGC for more than 30 minutes, followed by thawing at room temperature and centrifugation for 10 minutes at 4000 rpm. The samples were then analyzed for propionyl carnitine by LC-LC/MS using TSQ Vantage using a Kinetex 2.6 μm Biphenyl 2.1×50 mm column with Mobile Phase A of 95% (0.1% Formic acid in Water)+5% Water and Mobile Phase B of 95% McOH+5% (0.1% Formic acid in Water).

Data set [2] deals with Primary human fibroblasts from a patient with propionic acidemia (Coriell #GM00371). Kind of data set: Cell viability (cell Titer-Glo) of propionic acidemia fibroblasts. The format is cell-based. Conditions: FIG. 1. As for the experimental part:
as §1
Cell viability was also determined with cell Titer-Glo reagent (Promega) by addition of equal volumes of D-PBS and Cell Titer-Glo reagent to cell wells and following manufacturer's recommendations for detection of luminescence signal.

For the next data set, the target named is T2, BCAT2 (Homo sapiens, UniProt O15382).
T2 sequence (O15382 28-392): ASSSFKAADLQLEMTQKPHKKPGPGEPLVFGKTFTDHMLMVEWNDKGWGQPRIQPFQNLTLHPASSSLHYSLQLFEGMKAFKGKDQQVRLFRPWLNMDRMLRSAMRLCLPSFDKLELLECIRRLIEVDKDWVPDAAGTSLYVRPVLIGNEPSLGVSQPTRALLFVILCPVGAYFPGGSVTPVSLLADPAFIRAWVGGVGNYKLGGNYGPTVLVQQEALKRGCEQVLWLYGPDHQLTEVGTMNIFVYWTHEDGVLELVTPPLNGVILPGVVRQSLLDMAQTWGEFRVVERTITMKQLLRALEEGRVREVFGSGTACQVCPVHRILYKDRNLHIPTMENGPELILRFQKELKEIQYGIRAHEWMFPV
In words: BCAT2 enzyme inhibition (human). The format is biochemical. The procedure, abridged: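 Cell-free coupled fluorescent assay: human BCATm converts branched-chain amino acids and α-ketoglutarate to L-glutamate, which L-glutamate oxidase and HRP link to resorufin formation from Amplex Red; activity taken as reduced glutamate signal.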

Data set [3] deals with branched chain amino acids (BCAA) in plasma. Kind of data set: Repetitive treatment with BCAT2 inhibitor compound: plasma amino acids. The format is in vivo. Conditions: mice. On the procedure:
Male, C57Black/6J mice (6-7 weeks, Jackson Laboratories, Bar Harbor, Me.) were used in all in vivo experiments. Animals were maintained on a 12 hour light/dark reverse cycle in a temperature- and humidity-controlled room with access to food and water ad libitum. Before the experiment, animals underwent a 7-day acclimation period.
All biological samples were stored in −80° C. until analysis. […] In particular, 20 μL of mouse plasma were precipitated with 180 μL acetonitrile containing 5 μg/ml D8-Valine. Samples were vortexed vigorously and centrifuged to remove precipitated protein. 2 μL of supernatant was injected on a Phenomenex Gemini C18 column (4.6 mm×150 mm, 5 μm particle size) for separation under a linear gradient from 2% ACN to 50% ACN in 10 minutes followed by a 7 minute equilibration with 2% ACN.
Animals were grouped based on pair matched body weight and received either vehicle (0.5% HPMC K100+0.1 Tween 80, pH=10.0) or a daily dose of compound (200 mg/kg, PO) for 9 days. From day 1 to day 5, all animals were provided with normal diet. […] On day 9, blood, bladder urine as well as tissue samples (liver, brain, heart, muscle and kidney) were harvested 4 hours after the last dose. Three mice in each treatment/diet group were retained for a 3-day recovery phase observation. On day 12, blood, bladder urine as well as tissue samples (liver, brain, heart, muscle and kidney) were harvested. During the entire study course (day 1 to day 12), mice were able to access food and water freely. Body weights were measured daily and any abnormal behavior for toxicity signs was recorded.

The nature of data set [4]: Repetitive treatment: body weight and toxicity signs. The note with it: mice, 200 mg/kg PO once a day for 9 days and 3-day recovery. The format is in vivo. As for the experimental part:
[…]. Animals were maintained on a 12 hour light/dark reverse cycle in a temperature- and humidity-controlled room with access to food and water ad libitum. Before the experiment, animals underwent a 7-day acclimation period. All procedures involving mice were approved by the Institutional Animal Care and Use Committee of the University of Arizona and were conducted in accordance with Principles of Laboratory Animal Care (National Institutes of Health Publication 85-23, revised in 1985).
Animals were grouped based on pair matched body weight and received either vehicle (0.5% HPMC K100+0.1 Tween 80, pH=10.0) or a daily dose of compound (200 mg/kg, PO) for 9 days. From day 1 to day 5, all animals were provided with normal diet. On day 6, the diet was switched to a precursor enriched chow (700% isoleucine, valine and threonine enriched, TD. 140829; Envigo) for half of the animals; the other half were still fed with normal diet. On day 9, blood, bladder urine as well as tissue samples (liver, brain, heart, muscle and kidney) were harvested 4 hours after the last dose. Three mice in each treatment/diet group were retained for a 3-day recovery phase observation. On day 12, blood, bladder urine as well as tissue samples (liver, brain, heart, muscle and kidney) were harvested. […] Body weights were measured daily and any abnormal behavior for toxicity signs was recorded.

Setting [5] is: 200 mg/kg PO for 9 days, normal diet, FIG. 4A.
Setting [6] is: 200 mg/kg PO, Day 9, precursor-enriched diet, FIG. 4B.

As to `CNC(=O)c1ccc2c(c1)nc(-c1ccccn1)n2[C@@H]1CCC[C@H](NC(=O)c2ccc(Br)s2)C1` [Compound 105], the IC50 was in the range of 0.5 to 1 µM against BCAT1, 0.1 to 0.5 µM in data set [1] (24 hours) and 0.5 to 1 µM in the data set with GM00371 cells.
For `CNC(=O)c1ccc2c(c1)nc(-c1ccccn1)n2C1CCCC(NC(=O)c2ccc(Br)s2)C1` (stereo not drawn) [drawing 84], in the data set with propionyl carnitine, the propionyl carnitine levels result is recorded as “inhibited”. Also, the “impact on cell viability” value in data set [2] is on record as “little impact”.
Regarding `CNC(=O)c1ccc2c(c1)nc(-c1ncccc1F)n2[C@H]1CCC[C@@H](NC(=O)c2ccc(Br)s2)C1` [Compound 199], the IC50 was below 0.1 µM against BCAT2; below 0.1 µM on BCAT1; below 0.1 µM in data set [1] (Homo sapiens, 24 h).
`CNC(=O)c1ccc2c(c1)nc(-c1cccs1)n2[C@H]1CCC[C@@H](NC(=O)c2ccc(Br)s2)C1` [Compound 193]: the half-inhibitory concentration (IC50) lay in the range of 0.5 to 1 µM against BCAT1; 0.1 to 0.5 µM in data set [1] (Homo sapiens, 24 h); 0.5 to 1 µM with GM00371 cells (Homo sapiens).
In the case of `CNC(=O)c1ccc2c(c1)nc(-c1ccccn1)n2C1CCCC(NC(=O)c2ccc(Br)s2)C1` (stereo not drawn) [drawing 85], in data set [3] (setting [5]), the “plasma level of Leu” value is reported as “significantly increased”, the “plasma level of Ser” value is on record as “not” and the “plasma level of Val” value is “significantly increased”. Moreover, in data set [3] (setting [6]), the “levels of BCAAs in plasma, compound vs vehicle” value is on record as “no significant changes” and the “plasma level of leucine” value is reported as “slight but significant decrease”. Besides, the “abnormal behaviors reflecting toxicities” value in data set [4] is “no obvious abnormal behaviors reflecting toxicities”. The body weight entry in data set [4] (FIG. 3A) is “no significant loss”.
`CNC(=O)c1ccc2c(c1)nc(-c1ncccc1F)n2[C@H]1CCC[C@@H](NC(=O)c2ccc(Cl)s2)C1` [Compound 197]: the IC50 was below 0.1 µM at BCAT2; below 0.1 µM at BCAT1; below 0.1 µM in data set [1] (Homo sapiens, 24 h).
For `CNC(=O)c1ccc2c(c1)nc(-c1ccccn1)n2[C@@H]1CCC[C@H](NC(=O)c2ccc(Br)s2)C1` [Compound 102], the values for the half-inhibitory concentration (IC50) (against BCAT1; in data set [1] (24 hours); in the data set on GM00371 cells (Homo sapiens)) were at least 1 µM, 0.5 to 1 µM and 0.5 to 1 µM, respectively.
